Key:
dorsal muscles of goats [1] = test: Osteoinductive potential of TCP ceramic loaded with lithium chloride, intramuscular implantation in goats (histology, histomorphometry); assay type: in vivo; details: LiCl in TCP; improved osteoinductivity
Protocol: The osteoinductive potential of TCP ceramic loaded with lithium chloride was tested in a pilot study in muscle of goats. After sterilization (autoclaving at 121° C. for 30 minutes), a volume of 1.0 cc of 1-3 mm ceramic particles (granules) of each TCP-only, TCP with 5 mmol LiCl/100 g, TCP with 15 mmol LiCl/100 g and TCP with 45 mmol LiCl/100 g were implanted in dorsal muscles of 4 goats for 12 weeks (total 4 implants in each of 4 goats).
(§1) Twelve weeks after implantation the animals Were sacrificed and the implants were harvested with surrounding tissues and fixed in 1.5% glutaraldehyde in 0.14M cacodylate buffer. The fixed samples were dehydrated in a graded series of aqueous ethanol solutions (70%, 80%, 90%, 96% and 100%×2) and finally embedded in MMA. Non-decalcified sections (10-20 μm) were prepared and stained with methylene blue and basic fuchsin for histological observation and histomorphometrical analysis regarding bone formation.
Histomorphometry was performed on the sections across the middle of the implants with regard to the percentage of the formed bone in the available space.

dorsal muscles of goats [2] = test: Osteoinductive potential of sodium fluoride-loaded TCP ceramic, intramuscular implantation in goats (histology, histomorphometry); assay type: in vivo; details: NaF in TCP; improved osteoinductivity
Protocol: The osteoinductive potential of sodium fluoride-loaded TCP ceramic was tested in a pilot study in muscles of goats. After sterilization (autoclaving at 121° C. for 30 minutes), a volume of 1.0 cc of 1-3 mm ceramic particles (granules) of each TCP-only, TCP with 8 mmol NaF/100 g, TCP with 16 mmol NaF/100 g and TCP with 24 mmol NaF/100 g were implanted in dorsal muscles of 4 goats for 12 weeks (total 4 implants in each of 4 goats).
as §1, with “were” for “Were”, “methyl methacrylate (MMA). Using standard procedures non-decalcified” for “MMA. Non-decalcified”, “made” for “prepared”
Histomorphometry was performed on the sections across the middle of the implants and to the percentage of the formed bone in the available space was measured using image analysis.

[Cl-].[Li+] [LiCl, lithium chloride]
effective amount of trace element in TCP (dorsal muscles of goats [1]): 5-45 mmol LiCl/100 g | optimum amount of trace element in TCP (dorsal muscles of goats [1]): around 15 mmol LiCl/100 g TCP

[F-].[Na+] [NaF, sodium fluoride]
effective amount of trace element in TCP (dorsal muscles of goats [2]): 8-24 mmol NaF/100 g | optimum amount of trace element in TCP (dorsal muscles of goats [2]): around 16 mmol NaF/100 g TCP
